Tests used:
Eca-109 cell line = assay: MTT cytotoxicity assay, Eca-109 cell line; format: cell-based, Human; settings: Eca-109 esophageal cancer cell line, etoposide positive control
Procedure: (§1) The cytotoxic activities of all isolated compounds were evaluated by MTT assay.
(§2) According to the previous procedure, all isolated compounds were evaluated for cytotoxic activities against Eca-109, MCF-7, and HepG2 cell lines, as well as a normal human umbilical vein endothelial cell line (HUVEC) (Table 3). Etoposide was used as the positive control.
(§3) The UV spectra were measured on a Shimadzu UV-1700 spectrometer (Shimadzu Corporation, Kyoto, Japan). The IR spectra were measured on a Nicolet 10 Microscope Spectrometer (Thermo Scientific, San Jose, CA, USA). The 1D and 2D NMR spectra were recorded on Bruker-AC (E)-500 spectrometer (Bruker AM 500, Fällanden, Switzerland) using TMS as an internal standard. The HR-ESI-MS was determined on a Bruker microTOF-Q instrument (Bruker BioSpin, Rheinstetten, Germany). Column chromatography was performed with silica gel (200–300 mesh; Qingdao Marine Chemical Inc., Qingdao, China), sephadex LH-20 (GE Healthcare), ODS (50 µm; YMC Co. LTD., Kyoto, Japan.), AB-8 macroporous resin (Qinshi Science and Technology Ltd., Zhengzhou, China). Thin layer chromatography (TLC) was carried out on silica gel GF254 precoated plates (Qingdao Marine Chemical Inc., Qingdao, China), and spots were visualized under UV light. Preparative HPLC separations were performed on a SEP system (Beijing Sepuruisi scientific Co., Ltd., China) equipped with a variable-wavelength UV detector, using a YMC-Pack ODS-A column (250 × 20 mm, 5 μm). Chemical reagents for isolation were of analytical grade and purchased from Tianjin Siyou Co., Ltd., China. Biological reagents were from Sigma Company. Human heptocellular (HepG2), esophageal (Eca-109), and breast (MCF-7) cancer cell lines were from Institute of Materia Medica, Chinese Academy of Medical Sciences and Peking Union Medical College, China.

MCF-7 cell line = assay: MTT cytotoxicity assay, MCF-7 cell line; format: cell-based, Human; settings: etoposide positive control
Procedure: as §1, §2, §3

HepG2 cell line = assay: MTT cytotoxicity assay, HepG2 cell line; format: cell-based, Human; settings: HepG2 hepatocellular cancer cell line, etoposide positive control
Procedure: as §1, §2, §3

[1] = MTT cytotoxicity assay, normal HUVEC cell line; format: cell-based; settings: HUVEC (normal human umbilical vein endothelial cells)
Procedure: (§4) According to the previous procedure [22], all isolated compounds were evaluated for cytotoxic activities against Eca-109, MCF-7, and HepG2 cell lines, as well as a normal human umbilical vein endothelial cell line (HUVEC) (Table 3). Etoposide was used as the positive control.

[2] = test system: normal human umbilical vein endothelial cell line (HUVEC); assay: MTT cytotoxicity assay, normal HUVEC cell line; format: cell-based
Procedure: as §4

[3] = Homo sapiens, MCF7, MCF-7 breast cancer cell line

COc1cc2ccc(=O)oc2cc1O[C@@H]1O[C@H](CO)[C@@H](O)[C@H](O[C@@H]2O[C@H](CO)[C@@H](O)[C@H](O)[C@H]2O)[C@H]1O [Compound 3, 7-[(3-O-β-D-glucopyranosyl-β-D-glucopyranosyl)oxy]-6-methoxycoumarin]
IC50 (Eca-109 cell line; Homo sapiens): > 100 µM | IC50 (MCF-7 cell line; [3]): > 100 µM | IC50 (HepG2 cell line; Homo sapiens): > 100 µM

COc1cc2ccc(=O)oc2c(O[C@@H]2O[C@H](CO)[C@@H](O)[C@H](O)[C@H]2O)c1O[C@@H]1O[C@H](CO)[C@@H](O)[C@H](O)[C@H]1O [Compound 6, 7,8-bis(β-D-glucopyranosyloxy)-6-methoxycoumarin]
IC50 (Eca-109 cell line; Homo sapiens): > 100 µM | IC50 (MCF-7 cell line; [3]): > 100 µM | IC50 (HepG2 cell line; Homo sapiens): > 100 µM

COc1cc2ccc(=O)oc2c(O)c1O [Compound 12, fraxetin]
IC50 (Eca-109 cell line; Homo sapiens): 20.4 ± 1.94 µM | IC50 (MCF-7 cell line; [3]): 28.6 ± 1.37 µM | IC50 (HepG2 cell line; Homo sapiens): 30.3 ± 1.18 µM | IC50 [1]: > 100 µM

COc1cc2ccc(=O)oc2cc1O [Compound 13, scopoletin]
IC50 (Eca-109 cell line; Homo sapiens): 45.7 ± 3.55 µM | IC50 (MCF-7 cell line; [3]): 61.6 ± 5.7 µM | IC50 (HepG2 cell line; Homo sapiens): 53.7 ± 4.09 µM | IC50 [1]: > 100 µM

COc1cc2ccc(=O)oc2c(O)c1OC [Compound 14, fraxidin]
IC50 (Eca-109 cell line; Homo sapiens): 41.1 ± 3.78 µM | IC50 (MCF-7 cell line; [3]): 59.6 ± 5.24 µM | IC50 (HepG2 cell line; Homo sapiens): > 100 µM | IC50 [1]: > 100 µM

COc1cc2ccc(=O)oc2cc1OC [Compound 16, scoparone]
IC50 (Eca-109 cell line; Homo sapiens): > 100 µM | IC50 (MCF-7 cell line; [3]): > 100 µM | IC50 (HepG2 cell line; Homo sapiens): > 100 µM

COc1cc([C@@H]2c3cc4c(cc3[C@@H](O[C@@H]3O[C@@H]5CO[C@@H](C)O[C@H]5[C@H](O)[C@H]3O)[C@H]3COC(=O)[C@H]23)OCO4)cc(OC)c1O [etoposide, reference compound]
IC50 (Eca-109 cell line; Homo sapiens): 20.5 ± 1.82 µM | IC50 (MCF-7 cell line; [3]): 5.82 ± 0.49 µM | IC50 (HepG2 cell line; Homo sapiens): 1.15 ± 0.09 µM

cleomiscosin A [Compound 11]
IC50 (Eca-109 cell line): 21 ± 1.85 µM | IC50 (MCF-7 cell line; MCF-7 breast cancer cell line): 35.3 ± 2.61 µM | IC50 (HepG2 cell line): 43.7 ± 3.97 µM | IC50 [2]: > 100 µM

Source: article PMC6514664, “Six New Coumarin Glycosides from the Aerial Parts of Gendarussa vulgaris” (Molecules, 2019)
